Data published in US20240000872A1, “NOVEL BACTERIOPHAGE THAT LYSES ACINETOBACTER GENUS BACTERIA HAVING RESISTANCE TO ANTIBIOTICS” (priority 2020, published 2024).

Test system: Acinetobacter baumannii strains
Assay: Antibiotic susceptibility test (CLSI disk diffusion test method, read per CLSI 2016)
Type: cell-based
Parameters: antibiotic susceptibility test value / susceptibility test value (number given before S/I/R) / antibiotic susceptibility value: unit not given here
Description: (§1) Strain identification was performed using a kit such as AT 32 GN system (bioMérieux, Marcy l'Etoile, France). […] In Table 2 below, S, I, and R are the results obtained by evaluating susceptibility to the antibacterial agents, in which ‘S’ means susceptible, ‘I’ means intermediate, and ‘R’ means resistant.
as §1, with “as ATB” for “as AT”, “system (bioMédrieux,” for “system (bioMérieux,”, “Table 6” for “Table 2”
as §1, with “as ATB” for “as AT”, “Table 10” for “Table 2”, “susceptible, T” for “susceptible, ‘I’”

## cortrimoxazole
Host strain YMC14/01/C29
  antibiotic susceptibility class: R
  antibiotic susceptibility test value: 320
Host strain YMC14/01/IP122
  antibiotic susceptibility class: S
  antibiotic susceptibility test value: 20
Host strain YMC14/01/L8
  antibiotic susceptibility class: R
  antibiotic susceptibility test value: 320
Host strain YMC14/01/P31
  antibiotic susceptibility class: R
  antibiotic susceptibility test value: 160
Host strain YMC14/01/P117
  antibiotic susceptibility class: R
  antibiotic susceptibility test value: 160
Host strain YMC14/01/P224
  antibiotic susceptibility class: R
  antibiotic susceptibility test value: 320
Host strain YMC14/01/P727
  antibiotic susceptibility class: R
  antibiotic susceptibility test value: 320
Host strain YMC14/01/P728
  antibiotic susceptibility class: R
  antibiotic susceptibility test value: 160
Host strain YMC14/01/R130
  antibiotic susceptibility class: R
  antibiotic susceptibility test value: 320
Host strain YMC14/01/R160
  antibiotic susceptibility class: R
  antibiotic susceptibility test value: 320
Host strain YMC14/01/R198
  antibiotic susceptibility class: R
  antibiotic susceptibility test value: 320
Host strain YMC14/01/R257
  antibiotic susceptibility class: R
  antibiotic susceptibility test value: 320
Host strain YMC14/01/R270
  antibiotic susceptibility class: R
  antibiotic susceptibility test value: 320
Host strain YMC14/01/R324
  antibiotic susceptibility class: R
  antibiotic susceptibility test value: 160
Host strain YMC14/01/R443
  antibiotic susceptibility class: R
  antibiotic susceptibility test value: 320
Host strain YMC14/01/R451
  antibiotic susceptibility class: R
  antibiotic susceptibility test value: 320
Host strain YMC14/01/R560
  antibiotic susceptibility class: R
  antibiotic susceptibility test value: 160
Host strain YMC14/01/R617
  antibiotic susceptibility class: R
  antibiotic susceptibility test value: 320
Host strain YMC14/01/R671
  antibiotic susceptibility class: R
  antibiotic susceptibility test value: 320
Host strain YMC14/01/R732
  antibiotic susceptibility class: R
  antibiotic susceptibility test value: 320
Host strain YMC14/01/R767
  antibiotic susceptibility class: R
  antibiotic susceptibility test value: 160
Host strain YMC14/01/R904
  antibiotic susceptibility class: S
  antibiotic susceptibility test value: 20
Host strain YMC14/01/R905
  antibiotic susceptibility class: R
  antibiotic susceptibility test value: 320
Host strain YMC14/01/R921
  antibiotic susceptibility class: S
  antibiotic susceptibility test value: 40
Host strain YMC14/01/R941
  antibiotic susceptibility class: R
  antibiotic susceptibility test value: 320
Host strain YMC14/01/R958
  antibiotic susceptibility class: R
  antibiotic susceptibility test value: 320
Host strain YMC14/01/R1006
  antibiotic susceptibility class: R
  antibiotic susceptibility test value: 320
Host strain YMC14/01/R1199
  antibiotic susceptibility class: R
  antibiotic susceptibility test value: 160
Host strain YMC14/01/R1659
  antibiotic susceptibility class: R
  antibiotic susceptibility test value: 320
Host strain YMC14/01/R1722
  antibiotic susceptibility class: R
  antibiotic susceptibility test value: 320
Host strain YMC14/01/R1752
  antibiotic susceptibility class: S
  antibiotic susceptibility test value: 20
Host strain YMC14/01/R2429
  antibiotic susceptibility class: R
  antibiotic susceptibility test value: 160
Host strain YMC14/01/R2572
  antibiotic susceptibility class: R
  antibiotic susceptibility test value: 320
Host strain YMC14/01/R2855
  antibiotic susceptibility class: R
  antibiotic susceptibility test value: 320
Host strain YMC14/01/R2945
  antibiotic susceptibility class: R
  antibiotic susceptibility test value: 160
Host strain YMC14/01/R3007
  antibiotic susceptibility class: S
  antibiotic susceptibility test value: 20
Host strain YMC14/01/R3129
  antibiotic susceptibility class: S
  antibiotic susceptibility test value: 20
Host strain YMC14/01/R3317
  antibiotic susceptibility class: R
  antibiotic susceptibility test value: 160
Host strain YMC14/01/R3474
  antibiotic susceptibility class: R
  antibiotic susceptibility test value: 160
Host strain YMC14/01/R3574
  antibiotic susceptibility class: R
  antibiotic susceptibility test value: 160
Host strain YMC14/01/U313
  antibiotic susceptibility class: R
  antibiotic susceptibility test value: 320
Host strain YMC14/01/U318
  antibiotic susceptibility class: R
  antibiotic susceptibility test value: 320
Host strain YMC14/02/L18
  antibiotic susceptibility class: R
  antibiotic susceptibility test value: 160
Host strain YMC14/02/P47
  antibiotic susceptibility class: R
  antibiotic susceptibility test value: 320
Host strain YMC14/02/R1860
  antibiotic susceptibility class: R
  antibiotic susceptibility test value: 320
Host strain YMC14/02/R2417
  antibiotic susceptibility class: R
  antibiotic susceptibility test value: 320
Host strain YMC14/02/R2599
  antibiotic susceptibility class: S
  antibiotic susceptibility test value: 20
Host strain YMC14/02/R2668
  antibiotic susceptibility class: R
  antibiotic susceptibility test value: 320
Host strain YMC14/02/R2758
  antibiotic susceptibility class: R
  antibiotic susceptibility test value: 320
Host strain YMC14/02/R2781
  antibiotic susceptibility class: R
  antibiotic susceptibility test value: 160
Host strain YMC14/02/R3106
  antibiotic susceptibility class: R
  antibiotic susceptibility test value: 320
Host strain YMC14/02/R3419
  antibiotic susceptibility class: R
  antibiotic susceptibility test value: 320
Host strain YMC14/02/U1607
  antibiotic susceptibility class: S
  antibiotic susceptibility test value: 20
Host strain YMC14/03/L9
  antibiotic susceptibility class: R
  antibiotic susceptibility test value: 160
Host strain YMC14/03/P471
  antibiotic susceptibility class: S
  antibiotic susceptibility test value: 20
Host strain YMC14/03/R122
  antibiotic susceptibility class: S
  antibiotic susceptibility test value: 20
Host strain YMC14/03/R217
  antibiotic susceptibility class: R
  antibiotic susceptibility test value: 160
Host strain YMC14/03/R380
  antibiotic susceptibility class: R
  antibiotic susceptibility test value: 320
Host strain YMC14/03/R618
  antibiotic susceptibility class: S
  antibiotic susceptibility test value: 20
Host strain YMC14/03/R2144
  antibiotic susceptibility class: R
  antibiotic susceptibility test value: 160
Host strain YMC14/03/U4616
  antibiotic susceptibility class: R
  antibiotic susceptibility test value: 160
Host strain YMC14/04/R1078
  antibiotic susceptibility class: S
  antibiotic susceptibility test value: 20
Host strain YMC14/04/R1080
  antibiotic susceptibility class: S
  antibiotic susceptibility test value: 20
Host strain YMC14/06/R2359
  antibiotic susceptibility S/I/R: R
  antibiotic susceptibility value: 320
  susceptibility category (S/I/R): R
  susceptibility test value (number given before S/I/R): 320
Host strain YMC14/08/R1169
  antibiotic susceptibility S/I/R: R
  antibiotic susceptibility value: 320
  susceptibility category (S/I/R): R
  susceptibility test value (number given before S/I/R): 320
Host strain YMC14/08/T90
  antibiotic susceptibility S/I/R: R
  antibiotic susceptibility value: 320
  susceptibility category (S/I/R): R
  susceptibility test value (number given before S/I/R): 320
Host strain YMC15/02/R436
  antibiotic susceptibility S/I/R: R
  antibiotic susceptibility value: 320
  susceptibility category (S/I/R): R
  susceptibility test value (number given before S/I/R): 320
Host strain YMC15/02/T28
  antibiotic susceptibility S/I/R: R
  antibiotic susceptibility value: 320
  susceptibility category (S/I/R): R
  susceptibility test value (number given before S/I/R): 320
Host strain YMC15/03/R1604
  antibiotic susceptibility S/I/R: R
  antibiotic susceptibility value: 320
  susceptibility category (S/I/R): R
  susceptibility test value (number given before S/I/R): 320
Host strain YMC15/09/R1869
  antibiotic susceptibility S/I/R: R
  antibiotic susceptibility value: 320
  susceptibility category (S/I/R): R
  susceptibility test value (number given before S/I/R): 320
Host strain YMC16/01/P11
  antibiotic susceptibility S/I/R: R
  antibiotic susceptibility value: 320
  susceptibility category (S/I/R): R
  susceptibility test value (number given before S/I/R): 320
Host strain YMC16/01/R123
  antibiotic susceptibility S/I/R: R
  antibiotic susceptibility value: 160
  susceptibility category (S/I/R): R
  susceptibility test value (number given before S/I/R): 160
Host strain YMC16/01/R198
  antibiotic susceptibility S/I/R: R
  antibiotic susceptibility value: 160
  susceptibility category (S/I/R): R
  susceptibility test value (number given before S/I/R): 160
Host strain YMC16/01/R353
  antibiotic susceptibility S/I/R: R
